Experimental data as given in ChEMBL document CHEMBL5131491, “N6-modification of 7-Deazapurine nucleoside analogues as Anti-Trypanosoma cruzi and anti-Leishmania agents: Structure-activity relationship exploration and In vivo evaluation” (Eur J Med Chem, 2022).

How the values were obtained:
[1] = Cytotoxicity against human MRC5 fibroblast cells assessed as reduction in cell viability measured after 3 days by fluorometry; format: toxicity, cell-based; settings: time 3 day
Leishmania infantum = test: Antileishmanial activity against intracellular Leishmania infantum MHOM/MA(BE)/67 amastigotes infected in Swiss mouse peritoneal macrophages assessed as parasite growth inhibition incubated for 5 days by giemsa staining based microscopic analysis; format: functional, organism-based; settings: MHOM/MA(BE)/67, Macrophage, 120 h
Trypanosoma cruzi [2] = test: Antitrypanosomal activity against intracellular Trypanosoma cruzi Tulahuen amastigotes expressing CL2 beta-galactosidase in human MRC5 cells assessed as parasite growth inhibition using chlorophenol red beta-D-galactopyranoside as substrate treated for 7 days by spectrophotometry; format: functional, organism-based; settings: MRC5, 168 h
[3] = Cytotoxicity against Swiss mouse peritoneal macrophages assessed as reduction in cell viability measured after 5 days by microscopic analysis; format: toxicity, cell-based, Macrophage; settings: time 5 day
[4] = Selectivity index, ratio of CC50 for human MRC-5 cells to EC50 for antitrypanosomal activity against intracellular Trypanosoma cruzi Tulahuen amastigotes expressing CL2 beta-galactosidase in human MRC5 cells; format: toxicity, cell-based; settings: read-out: Selectivity Index
[5] = Selectivity index, ratio of CC50 for Swiss mouse peritoneal macrophages to EC50 for antileishmanial activity against intracellular Leishmania infantum MHOM/MA(BE)/67 amastigotes infected in Swiss mouse peritoneal macrophages; format: toxicity, cell-based; settings: read-out: Selectivity Index
[6] = Toxicity in acute CD Swiss Webster mouse model infected with Trypanosoma cruzi Y strain assessed as animal survival at 100 mg/kg, po qd for 5 consecutive days measured daily for upto 30 days post-treatment; format: organism-based; settings: in vivo, 720 h, time < 30 day
Trypanosoma cruzi [7] = test: Antitrypanosomal activity against Trypanosoma cruzi Y strain infected in acute CD Swiss Webster mouse model assessed as reduction in parasitemia at 100 mg/kg, po qd for 5 consecutive days by light microscopy relative to control; format: functional; design: scale not given: the % may be the effect or the level left; settings: time 5 day

SMILES	CC50 at 72 h [1]	EC50 (Leishmania infantum)	EC50 (Trypanosoma cruzi [2])	CC50 at 120 h [3]	selectivity ratio [4]	selectivity ratio [5]	Survival [6]	Activity (Trypanosoma cruzi [7])
CC(C)Nc1ncnc2c1ccn2[C@@H]1O[C@H](CO)[C@@H](O)[C@H]1O	> 64 µM	> 64 µM	> 64 µM	> 64 µM	–	–	–	–
OC[C@H]1O[C@@H](n2ccc3c(Nc4ccccc4)ncnc32)[C@H](O)[C@@H]1O	> 64 µM	1.37 µM	7.89 µM	2 µM	> 8.11	1.46	–	–
OC[C@H]1O[C@@H](n2ccc3c(N4CCCCC4)ncnc32)[C@H](O)[C@@H]1O	> 64 µM	1.11 µM	7.74 µM	2 µM	> 8.27	1.8	–	–
Nc1ncnc2c1ccn2[C@@H]1O[C@H](CO)[C@@H](O)[C@H]1O [TUBERCIDIN]	2.23 µM	0.13 µM	0.34 µM	0.13 µM	6.6	1	–	–
OC[C@H]1O[C@@H](n2ccc3c(N4CCCC4)ncnc32)[C@H](O)[C@@H]1O	> 64 µM	> 64 µM	> 64 µM	64 µM	–	–	–	–
CN(C)c1ncnc2c1ccn2[C@@H]1O[C@H](CO)[C@@H](O)[C@H]1O	7.06 µM	> 64 µM	1.65 µM	64 µM	4.28	–	–	–
OC[C@H]1O[C@@H](n2ccc3c(NCc4ccccc4)ncnc32)[C@H](O)[C@@H]1O	> 64 µM	1.09 µM	7.48 µM	5 µM	> 8.56	4.59	–	–
OC[C@H]1O[C@@H](n2ccc3c(NC4CC4)ncnc32)[C@H](O)[C@@H]1O	> 64 µM	0.36 µM	2.28 µM	1.25 µM	> 28.1	3.47	–	–
CC1CCN(c2ncnc3c2ccn3[C@@H]2O[C@H](CO)[C@@H](O)[C@H]2O)CC1	> 64 µM	2.6 µM	7.84 µM	8 µM	> 8.15	3.08	–	–
CCNc1ncnc2c1ccn2[C@@H]1O[C@H](CO)[C@@H](O)[C@H]1O	> 64 µM	0.51 µM	5.08 µM	> 64 µM	> 12.6	> 125	–	–
CCCCNc1ncnc2c1ccn2[C@@H]1O[C@H](CO)[C@@H](O)[C@H]1O	> 64 µM	3.84 µM	4.13 µM	> 64 µM	> 15.5	> 16.7	–	–
Nc1nc(N)c2ccn([C@@H]3O[C@H](CO)[C@@H](O)[C@H]3O)c2n1	> 64 µM	21.4 µM	1.36 µM	> 64 µM	6.6	> 2.99	–	–
O=C(Cn1ccnc1[N+](=O)[O-])NCc1ccccc1 [BENZNIDAZOLE]	–	–	–	–	–	–	Non-Toxic	100%
